In patent US20220089598A1, “INHIBITORS OF HUMAN IMMUNODEFICIENCY VIRUS REPLICATION” (VIIV HEALTHCARE UK (No. 5) LIMITED, priority 2018, published 2022):

What was measured:
[1] = tested on: recombinant NL4-3 virus (Renilla luciferase) in MT-2 cells; assay: HIV cell culture assay (antiviral activity, luciferase readout); assay type: cell-based; settings: Renilla, NL43
Experimental: HIV cell culture assay—MT-2 cells, 293T cells and the proviral DNA clone of NL4-3 virus were obtained from the NIH AIDS Research and Reference Reagent Program. MT-2 cells were propagated in RPMI 1640 media supplemented with 10% heat inactivated fetal bovine serum (FBS), 100 μg/ml penicillin G and up to 100 units/mL streptomycin. The 293T cells were propagated in DMEM media supplemented with 10% heat inactivated FBS, 100 μg/mL penicillin G and 100 μg/mL streptomycin. A recombinant NL4-3 proviral clone, in which a section of the nef gene was replaced with the Renilla luciferase gene, was used to make the reference virus used in these studies. The recombinant virus was prepared through transfection of the recombinant NL4-3 proviral clone into 293T cells using Transit-293 Transfection Reagent from Mirus Bio LLC (Madison, Wis.). Supernatent was harvested after 2-3 days and the amount of virus present was titered in MT-2 cells using luciferase enzyme activity as a marker by measuring luciferase enzyme activity. Luciferase was quantitated using the EnduRen Live Cell Substrate from Promega (Madison, Wis.). Antiviral activities of compounds toward the recombinant virus were quantified by measuring luciferase activity in MT-2 cells infected for 4-5 days with the recombinant virus in the presence of serial dilutions of the compound.
The 50% effective concentration (EC50) was calculated by using the exponential form of the median effect equation where (Fa)=1/[1+(ED50/drug conc.)m] (Johnson V A, Byington R T. Infectivity Assay. In Techniques in HIV Research. ed. Aldovini A, Walker B D. 71-76. New York: Stockton Press. 1990).

[2] = Compound cytotoxicity, XTT-based colorimetric assay; assay type: cell-based; settings: human; uninfected MT2 cells, day 4, XTT assay
Experimental: Compound cytotoxicity and the corresponding CC50 values were determined using the same protocol as described in the antiviral assay except that uninfected cells were used. Cytotoxicity was assessed on day 4 in uninfected MT2 cells by using a XTT (2,3-bis[2-Methoxy-4-nitro-5-sulfophenyl]-2H-tetrazolium-5-carboxyanilide inner salt)-based colorimetric assay (Sigma-Aldrich, St Louis, Mo.).

Compound | EC50 [1] [nM] | CC50 at 4 day [2] [nM]
Cn1nc(NS(C)(=O)=O)c2c(Cl)ccc(-n3c([C@H](Cc4cc(F)cc(F)c4)NC(=O)Cn4nc(C(F)F)c5c4C(F)(F)[C@@H]4C[C@H]54)nc4nc(-c5ccccc5F)ccc4c3=O)c21 (atropisomer, axis not shown; (P)) [Example 1, N—((S)-1-((3P)-3-(4-chloro-1-methyl-3-(methylsulfonamido)-1H-indazol-7-yl)-7-(2-fluorophenyl)-4-oxo-3,4-dihydropyrido[2,3-d]pyrimidin-2-yl)-2-(3,5-difluorophenyl)ethyl)-2-((3bS,4aR)-3-(difluoromethyl)-5,5-difluoro-3b,4,4a,5-tetrahydro-1H-cyclopropa[3,4]cyclopenta[1,2-c]pyrazol-1-yl)acetamide] | 0.06 | > 1000
Cn1nc(NS(C)(=O)=O)c2c(Cl)ccc(-n3c([C@H](Cc4cc(F)cc(F)c4)NC(=O)Cn4nc(C(F)F)c5c4C(F)(F)[C@@H]4C[C@H]54)nc4nc(-c5c(F)cccc5F)ccc4c3=O)c21 (atropisomer, axis not shown; (P)) [Example 3, N—((S)-1-((3P)-3-(4-chloro-1-methyl-3-(methylsulfonamido)-1H-indazol-7-yl)-7-(2,6-difluorophenyl)-4-oxo-3,4-dihydropyrido[2,3-d]pyrimidin-2-yl)-2-(3,5-difluorophenyl)ethyl)-2-((3bS,4aR)-3-(difluoromethyl)-5,5-difluoro-3b,4,4a,5-tetrahydro-1H-cyclopropa[3,4]cyclopenta[1,2-c]pyrazol-1-yl)acetamide] | 0.11 | > 100
Cn1nc(NS(C)(=O)=O)c2c(Cl)ccc(-n3c([C@H](Cc4cc(F)cc(F)c4)NC(=O)Cn4nc(C(F)F)c5c4C(F)(F)[C@@H]4C[C@H]54)nc4nc(-c5ccc(F)c(C#N)c5)ccc4c3=O)c21 (atropisomer, axis not shown; (P)) [Example 30, N—((S)-1-((3P)-3-(4-chloro-1-methyl-3-(methylsulfonamido)-1H-indazol-7-yl)-7-(3-cyano-4-fluorophenyl)-4-oxo-3,4-dihydropyrido[2,3-d]pyrimidin-2-yl)-2-(3,5-difluorophenyl)ethyl)-2-((3bS,4aR)-3-(difluoromethyl)-5,5-difluoro-3b,4,4a,5-tetrahydro-1H-cyclopropa[3,4]cyclopenta[1,2-c]pyrazol-1-yl)acetamide] | 0.078 | > 100
O=C(Cn1ccc(C2CC2)n1)N[C@@H](Cc1cc(F)cc(F)c1)c1nc2nc(-c3ccccc3F)ccc2c(=O)n1-c1ccc(Cl)c2c(NS(=O)(=O)C3CC3)nn(CC(F)F)c12 (atropisomer, axis not shown; (P)) [Example 35, (S)—N-(1-((3P)-3-(4-chloro-3-(cyclopropanesulfonamido)-1-(2,2-difluoroethyl)-1H-indazol-7-yl)-7-(2-fluorophenyl)-4-oxo-3,4-dihydropyrido[2,3-d]pyrimidin-2-yl)-2-(3,5-difluorophenyl)ethyl)-2-(3-cyclopropyl-1H-pyrazol-1-yl)acetamide] | 0.2 | > 500
COc1nc2nc([C@H](Cc3cc(F)cc(F)c3)NC(=O)Cn3nc(C(F)(F)F)c4c3C(F)(F)[C@@H]3C[C@H]43)n(-c3ccc(Cl)c4c(NS(C)(=O)=O)nn(C)c34)c(=O)c2cc1-c1ccccc1F (atropisomer, axis not shown; (P)) [Example 31, N—((S)-1-((3P)-3-(4-chloro-1-methyl-3-(methylsulfonamido)-1H-indazol-7-yl)-6-(2-fluorophenyl)-7-methoxy-4-oxo-3,4-dihydropyrido[2,3-d]pyrimidin-2-yl)-2-(3,5-difluorophenyl)ethyl)-2-((3bS,4aR)-5,5-difluoro-3-(trifluoromethyl)-3b,4,4a,5-tetrahydro-1H-cyclopropa[3,4]cyclopenta[1,2-c]pyrazol-1-yl)acetamide] | 0.16 | > 500
Cn1nc(NS(C)(=O)=O)c2c(Cl)ccc(-n3c([C@H](Cc4cc(F)cc(F)c4)NC(=O)Cn4nc(C(F)F)c5c4C(F)(F)[C@@H]4C[C@H]54)nc4nc(-c5ccc(F)c(Cl)c5)ccc4c3=O)c21 (atropisomer, axis not shown; (P)) [Example 29, N—((S)-1-((3P)-3-(4-chloro-1-methyl-3-(methylsulfonamido)-1H-indazol-7-yl)-7-(3-chloro-4-fluorophenyl)-4-oxo-3,4-dihydropyrido[2,3-d]pyrimidin-2-yl)-2-(3,5-difluorophenyl)ethyl)-2-((3bS,4aR)-3-(difluoromethyl)-5,5-difluoro-3b,4,4a,5-tetrahydro-1H-cyclopropa[3,4]cyclopenta[1,2-c]pyrazol-1-yl)acetamide] | 0.12 | > 100
Cn1nc(NS(C)(=O)=O)c2c(Cl)ccc(-n3c([C@H](Cc4cc(F)cc(F)c4)NC(=O)Cn4nc(C(F)F)c5c4C(F)(F)[C@@H]4C[C@H]54)nc4nc(-c5ccc(F)cc5F)ccc4c3=O)c21 (atropisomer, axis not shown; (P)) [Example 39, N—((S)-1-((3P)-3-(4-chloro-1-methyl-3-(methylsulfonamido)-1H-indazol-7-yl)-7-(2,4-difluorophenyl)-4-oxo-3,4-dihydropyrido[2,3-d]pyrimidin-2-yl)-2-(3,5-difluorophenyl)ethyl)-2-((3bS,4aR)-3-(difluoromethyl)-5,5-difluoro-3b,4,4a,5-tetrahydro-1H-cyclopropa[3,4]cyclopenta[1,2-c]pyrazol-1-yl)acetamide] | 0.047 | > 500
Cn1nc(NS(C)(=O)=O)c2c(Cl)ccc(-n3c([C@H](Cc4cc(F)cc(F)c4)NC(=O)Cn4nc(C(F)F)c5c4C(F)(F)[C@@H]4C[C@H]54)nc4nc(-c5c(F)cc(F)cc5F)ccc4c3=O)c21 (atropisomer, axis not shown; (P)) [Example 28, N—((S)-1-((3P)-3-(4-chloro-1-methyl-3-(methylsulfonamido)-1H-indazol-7-yl)-4-oxo-7-(2,4,6-trifluorophenyl)-3,4-dihydropyrido[2,3-d]pyrimidin-2-yl)-2-(3,5-difluorophenyl)ethyl)-2-((3bS,4aR)-3-(difluoromethyl)-5,5-difluoro-3b,4,4a,5-tetrahydro-1H-cyclopropa[3,4]cyclopenta[1,2-c]pyrazol-1-yl)acetamide] | 0.032 | > 100
CS(=O)(=O)Nc1nn(CC(F)F)c2c(-n3c([C@H](Cc4cc(F)cc(F)c4)NC(=O)Cn4nc(C(F)F)c5c4C(F)(F)[C@@H]4C[C@H]54)nc4nc(-c5ccccc5F)ccc4c3=O)ccc(Cl)c12 (atropisomer, axis not shown; (P)) [Example 10, N—((S)-1-((3P)-3-(4-chloro-1-(2,2-difluoroethyl)-3-(methylsulfonamido)-1H-indazol-7-yl)-7-(2-fluorophenyl)-4-oxo-3,4-dihydropyrido[2,3-d]pyrimidin-2-yl)-2-(3,5-difluorophenyl)ethyl)-2-((3bS,4aR)-3-(difluoromethyl)-5,5-difluoro-3b,4,4a,5-tetrahydro-1H-cyclopropa[3,4]cyclopenta[1,2-c]pyrazol-1-yl)acetamide] | 0.097 | > 100
Cn1nc(NS(C)(=O)=O)c2c(Cl)ccc(-n3c([C@H](Cc4cc(F)cc(F)c4)NC(=O)Cn4ccc(C5CC5)n4)nc4nc(-c5ccccc5F)ccc4c3=O)c21 (atropisomer, axis not shown; (P)) [Example 34, (S)—N-(1-((3P)-3-(4-chloro-1-methyl-3-(methylsulfonamido)-1H-indazol-7-yl)-7-(2-fluorophenyl)-4-oxo-3,4-dihydropyrido[2,3-d]pyrimidin-2-yl)-2-(3,5-difluorophenyl)ethyl)-2-(3-cyclopropyl-1H-pyrazol-1-yl)acetamide] | 0.089 | > 500
Cn1nc(NS(C)(=O)=O)c2c(Cl)ccc(-n3c([C@H](Cc4cc(F)cc(F)c4)NC(=O)Cn4nc(C(F)F)c5c4C(F)(F)[C@@H]4C[C@H]54)nc4nc(-c5ccc(F)cc5)ccc4c3=O)c21 (atropisomer, axis not shown; (P)) [Example 18, N—((S)-1-((3P)-3-(4-chloro-1-methyl-3-(methylsulfonamido)-1H-indazol-7-yl)-7-(4-fluorophenyl)-4-oxo-3,4-dihydropyrido[2,3-d]pyrimidin-2-yl)-2-(3,5-difluorophenyl)ethyl)-2-((3bS,4aR)-3-(difluoromethyl)-5,5-difluoro-3b,4,4a,5-tetrahydro-1H-cyclopropa[3,4]cyclopenta[1,2-c]pyrazol-1-yl)acetamide] | 0.036 | > 100
